US20260076974A1, “COMPOSITIONS FOR PREVENTING AND TREATING INFECTION COMPRISING AN ARTIFICIAL SWEETENER” (Brunel University London, priority 2022, published 2026)
Read-outs that look alike come from different tables or passages of the source.

Tests used:
P. aeruginosa = test: Antibiotic susceptibility in the presence of sub-minimum inhibitory concentration of ace-K; format: cell-based, Pseudomonas aeruginosa; conditions: grown in the presence of ace-K for 19 hours
A. baumannii AB5075 [1] = tested on: A. baumannii AB5075; set-up: species or system Acinetobacter baumannii
Protocol: In this model, porcine skin was either burnt or lacerated and the wound infected with A. baumannii AB5075 and left for 3.5 hours to allow a biofilm to form. The dressing was applied for 1 hour and viable cells were collected after treatment. […] Samples were tested in biological triplicate with technical quadruplets.
(8% (w/w)), potassium tetraborate (3% (w/w)), and PVA (3% ((w/w)) were added into a beaker and mixed with deionized water. The mixture was placed in a water bath and heated at 80° C. for three hours with watch glass while being swirled with a stirring rod every 1 hour. Once hydrogels had been obtained, they were placed in a petri dish with custom-made moulds.

A. baumannii AB5075 [2] = test: Growth inhibition assay in LB medium (OD600); format: cell-based, Acinetobacter baumannii
P. aeruginosa PA14 [3] = test: Growth inhibition assay in nutrient medium (OD600); format: cell-based, Pseudomonas aeruginosa
A. baumannii AB5075 [4] = test: Carbapenem E strip on agar with sweetener
Text: The data presented is a representative image of three biological replicates±SD.

A. baumannii = test: Crystal violet biofilm formation assay / minimum biofilm inhibition concentration; format: cell-based, Acinetobacter baumannii
Protocol: (§1) Biofilm formation is linked to 80% of hospital-associated infections and is a major factor in the routine failure of antibiotic therapy.
(§2) All samples were exposed to the artificial sweeteners in LB medium for 19 hours before crystal violet biofilm assay was performed. […] The data present the mean of three biological replicates±SD. *p≤0.05, *p≤0.001 versus the bacterial growth in control samples.
(§3) All samples were exposed to artificial sweeteners for 19 hours before crystal violet biofilm assay was performed.

P. aeruginosa PA14 [5] = test: as above; format: cell-based, Pseudomonas aeruginosa; conditions: 3% (w/v) sucralose, […] (w/v) ace-K, LB medium, 19 hours
Protocol: as §1, §2, §3

[6] = tested on: A. baumannii gene expression
Protocol: Cells were spun down and washed in RNAlater to preserve mRNA. RNA was isolated using a Qiagen RNAeasy Kit with column DNAase digestion. RNA integrity was determined using a Bioanalyzer. Samples were further processed for RNA sequencing on an Illumina MiSeq with 12 million reads per sample. Quality control and adapter trimming was performed with bcl2fastq.

E. coli [7] = tested on: E. coli
E. coli [8] = tested on: E. coli; remark: listed apart in the source
Text: (§4) N=3 biological triplicate, each with technical triplicates).

[9] = […] sweetener, 19 hours, LB medium
[10] = […] sweetener, 19 hours, 37° C.

Text for Klebsiella pneumoniae: as §4

Compound: piperacillin/tazobactam
- susceptibility to antibiotic in the presence of ace-K (P. aeruginosa): increased susceptibility

Compound: gentamicin
- susceptibility to antibiotic in the presence of ace-K (P. aeruginosa): increased susceptibility

Compound: polymyxin B [reference compound]
- susceptibility to antibiotic in the presence of ace-K (P. aeruginosa): increased susceptibility
- log reduction in viable cells (A. baumannii AB5075 [1]): 3.13 log
- log reduction in viable cells (A. baumannii AB5075 [1]; burn wound biofilms, gauze loaded with 1.5 mL of 0.59 mg/mL polymyxin B singularly): 2.11 log

Compound: OC[C@@H](O)[C@H](O)[C@@H](O)CO [xylitol, Xylitol]
- bacterial growth in the presence of sweetener (A. baumannii AB5075 [2]; [9]): inhibit the growth
- bacterial growth in the presence of sweetener (P. aeruginosa PA14 [3]; [10]): inhibit the growth

Compound: OC[C@@H](O)[C@@H](O)CO [erythritol, Erythritol]
- bacterial growth in the presence of sweetener (A. baumannii AB5075 [2]; [9]): inhibit the growth

Compound: OCC1O[C@@H](O[C@@H]([C@H](O)[C@@H](O)CO)[C@H](O)CO)C(O)C(O)[C@H]1O (stereo partly drawn) [lactitol monohydrate, Lactitol]
- bacterial growth in the presence of sweetener (A. baumannii AB5075 [2]; [9]): inhibit the growth

Compound: C[C@@H](O)[C@H]1C(=O)N2C(C(=O)O)=C(S[C@@H]3CN[C@H](C(=O)N(C)C)C3)[C@H](C)[C@H]12 [meropenem]
- point to which growth was inhibited on the strip (A. baumannii AB5075 [4]; Control): ≥32 mg/L
- point to which growth was inhibited on the strip (A. baumannii AB5075 [4]; SAC 1%): 29.33 ± 4.61 ns mg/L
- point to which growth was inhibited on the strip (A. baumannii AB5075 [4]; SAC […]): 0.54 ± 0.19 mg/L

Compound: C[C@@H](O)[C@H]1C(=O)N2C(C(=O)O)=C(S[C@@H]3CN[C@H](CNS(N)(=O)=O)C3)[C@H](C)[C@H]12 [doripenem]
- point to which growth was inhibited on the strip (A. baumannii AB5075 [4]; Control): 18.67 ± 4.61 mg/L
- point to which growth was inhibited on the strip (A. baumannii AB5075 [4]; SAC 1%): 13.33 ± 2.31 ns mg/L
- point to which growth was inhibited on the strip (A. baumannii AB5075 [4]; SAC […]): 0.46 ± 0.07 mg/L

Compound: OC[C@@H](O)[C@@H](O)[C@H](O)[C@H](O)CO [mannitol, Mannitol]
- bacterial growth in the presence of sweetener (A. baumannii AB5075 [2]; [9]): inhibit the growth

Compound: C[C@@H](O)[C@H]1C(=O)N2C(C(=O)O)=C(SCCN=CN)C[C@H]12 [imipenem]
- point to which growth was inhibited on the strip (A. baumannii AB5075 [4]; Control): 21.33 ± 4.61 mg/L
- point to which growth was inhibited on the strip (A. baumannii AB5075 [4]; SAC 1%): 18.67 ± 4.61 ns mg/L
- point to which growth was inhibited on the strip (A. baumannii AB5075 [4]; SAC […]): 1 ± 0.43 mg/L

Compound: OC[C@H]1O[C@H](O[C@]2(CCl)O[C@H](CCl)[C@@H](O)[C@@H]2O)[C@H](O)[C@@H](O)[C@H]1Cl [sucralose, Sucralose]
- bacterial growth in the presence of sweetener (A. baumannii AB5075 [2]; [9]): inhibit the growth
- biofilm formation (A. baumannii; 3% (w/v) sucralose, […] (w/v) ace-K, LB medium, 19 hours): significantly inhibit biofilm formation
- biofilm formation (P. aeruginosa PA14 [5]): significantly inhibit biofilm formation
- bacterial growth in the presence of sweetener (P. aeruginosa PA14 [3]; [10]): inhibit the growth

Compound: OC[C@@H](O)[C@@H](O)[C@H](O)[C@@H](O)CO [sorbitol]
- bacterial growth in the presence of sweetener (P. aeruginosa PA14 [3]; [10]): inhibit the growth

Compound: O=S(=O)([O-])NC1CCCCC1.[Na+] [cyclamate, sodium cyclamate]
- bacterial growth in the presence of sweetener (A. baumannii AB5075 [2]): inhibit the growth
- concentration showing significant / effective growth inhibition (A. baumannii AB5075 [2]): ≥ 2%
- concentration with significant impact on / inhibition of biofilm formation (A. baumannii): ≥ 4%
- number of genes significantly differentially expressed [6]: 288 genes
- bacterial growth in the presence of sweetener (P. aeruginosa PA14 [3]): inhibit the growth
- concentration showing significant / effective growth inhibition (P. aeruginosa PA14 [3]): ≥ 2%
- concentration inhibiting biofilm formation (E. coli [7]): ≥ 3%
- concentration showing significant / effective growth inhibition (Klebsiella pneumoniae): ≥ 2%
- concentration showing significant / effective growth inhibition (E. coli [8]): ≥ 0.1%
- concentration inhibiting biofilm formation (K. pneumonia): ≥ 3%

Compound: OC[C@@H](O)[C@@H](O[C@H]1O[C@H](CO)[C@@H](O)[C@H](O)[C@H]1O)[C@H](O)[C@@H](O)CO [maltitol, Maltitol]
- bacterial growth in the presence of sweetener (A. baumannii AB5075 [2]; [9]): inhibit the growth
- bacterial growth in the presence of sweetener (P. aeruginosa PA14 [3]; [10]): inhibit the growth
